What all share (format): cell-based, human
In assay [1] the test system is MYB. As to the kind of experiment: HiBiT protein abundance assay, MYB HiBiT K562 cell line. Particulars: HiBiT K562 cell line, 24 hours, top dose 10 μM; read-out: Effect on protein abundance, MYB (IC50 category). An outline of the steps: (§1)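 Tagged-protein abundance measured by split-NanoBiT luminescence after lysis, following 24 h compound exposure (37° C; 10 μM top, 3-fold, 10 points; DMSO ≤0.25%) of HiBiT knock-in K562 cells. Percent response vs DMSO and unmodified-cell controls; 4-parameter logistic interpolation at 50% gave IC50.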
Background: The HiBiT peptide binds its large partner to form an active luciferase.

Assay [2] has as its system HTT mRNA. Nature of the assay: RT-qPCR splicing assay, HTT canonical junction (CJ) and alternative junction (AJ) mRNA. The conditions noted are these: Homo sapiens; for AC50: increase in HTT alternative junction (AJ) mRNA, read-out: HTT AJ AC50. An outline of the steps:
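Splicing switches were read by TaqMan RT-qPCR on lysates, quantifying exon-exon junctions of the canonical and alternative-exon isoforms. Lysates came from K562 (GAPDH/GUSB reference) or A673 (PPIA reference) cells exposed 24 h to compound in 11 threefold steps from 10 uM, with DMSO ≤0.25%.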

Assay [3] deals with HTT. Nature of the assay: HiBiT protein abundance assay, HTT HiBiT K562 cell line. Particulars: HiBiT K562 cell line, 24 hours, top dose 10 μM; read-out: Effect on protein abundance, HTT (IC50 category). An outline of the steps: as §1
Where [4] appears, read: decrease in HTT canonical junction (CJ) mRNA, RT-qPCR, read-out: HTT CJ IC50.
Where [5] appears, read: Table 5 panel, canonical junction qPCR, compound concentration having 50% response in CJ decrease, read-out: HTT IC50 (decrease in CJ mRNA levels).

Broadly, the IC50 is the concentration that inhibits the measured activity by half. As a reminder, the AC50 is the concentration at which the activity in the assay is half-maximal.

Like-named read-outs stand apart in the source and are kept apart here.

Regarding `Cc1cc(-c2cc(F)c3c(=O)n(C4CCNC5(CC5)C4)ncc3c2)cc2cn(C)nc12` (stereo not shown) [Compound 554], the IC50 in assay [1] is 0.1 to 1 µM; in assay [2] (setting [4]), 0.1 to 1 µM; in assay [2] (setting [5]), 0.1 to 1 µM; in assay [3] it was below 0.1 µM. Besides, in assay [2] (RT-qPCR), the AC50 fell in the range of 0.1 to 1 µM.
Turning to `Cc1nc2c(C)cc(-c3cc(F)c4c(=O)n(C5CCNC6(CC6)C5)ncc4c3)cc2o1` (stereo not shown) [Compound 555], the IC50 was 0.1 to 1 µM in assay [1], below 0.1 µM in assay [2] (setting [4]), below 0.1 µM in assay [2] (setting [5]) and below 0.1 µM in assay [3]. In addition, in assay [2] (RT-qPCR), the AC50 was below 0.1 µM.
`Cc1cn2cc(-c3cc(F)c4c(=O)n(C5CCNC6(CC6)C5)ncc4c3)cc(Cl)c2n1` (stereo not shown) [Compound 556]: the IC50 in assay [1] was 0.1 to 1 µM; in assay [2] (setting [4]) it was 0.1 to 1 µM; in assay [2] (setting [5]) it was 0.1 to 1 µM; in assay [3], below 0.1 µM. Also, the AC50 in assay [2] (RT-qPCR) was in the range of 0.1 to 1 µM.
Turning to `Cc1cn2cc(-c3cc(O)c4c(=O)n(C5CCNC6(CC6)C5)ncc4c3)cc(Cl)c2n1` (stereo not shown) [Compound 557], the IC50 is 0.1 to 1 µM in assay [1], 0.1 to 1 µM in assay [2] (setting [4]), 0.1 to 1 µM in assay [2] (setting [5]) and below 0.1 µM in assay [3]. Also, in assay [2] (RT-qPCR), the AC50 fell in the range of 0.1 to 1 µM.
In the case of `CCc1cn(C2CCNCC2)c(=O)c2c(F)cc(-c3cc(F)c4nc(C)cn4c3)cc12` [Compound 558, 4-ethyl-8-fluoro-6-{8-fluoro-2-methylimidazo[1,2-a]pyridin-6-yl}-2-(piperidin-4-yl)isoquinolin-1-one], the IC50 in assay [1] fell in the range of 0.1 to 1 µM; in assay [2] (setting [4]), 1 to 10 µM; in assay [2] (setting [5]), 1 to 10 µM; in assay [3], 0.1 to 1 µM. Also, in assay [2] (RT-qPCR), the AC50 fell in the range of 1 to 10 µM.
Turning to `C=Cc1cn(C2CCNCC2)c(=O)c2c(F)cc(-c3cc(F)c4nc(C)cn4c3)cc12` [Compound 559, 4-ethenyl-8-fluoro-6-{8-fluoro-2-methylimidazo[1,2-a]pyridin-6-yl}-2-(piperidin-4-yl)isoquinolin-1-one], the 50% inhibitory concentration (IC50) in assay [1] is below 0.1 µM; in assay [2] (setting [4]) it was 0.1 to 1 µM; in assay [2] (setting [5]), below 0.1 µM; in assay [3], below 0.1 µM. Besides, in assay [2] (RT-qPCR), the AC50 was below 0.1 µM.
On to `Cc1cn2cc(-c3ccc4c(=O)n(C5CCNCC5)ccc4c3)cc(C#N)c2n1` [Compound 560, 2-methyl-6-[1-oxo-2-(piperidin-4-yl)isoquinolin-6-yl]imidazo[1,2-a]pyridine-8-carbonitrile], for which the IC50 in assay [1] lay in the range of 0.1 to 1 µM; in assay [2] (setting [4]), 1 to 10 µM; in assay [2] (setting [5]), 0.1 to 1 µM; in assay [3], 0.1 to 1 µM. The AC50 in assay [2] (RT-qPCR) lay within 0.1 to 1 µM.
As to `Cc1cc(-c2cc(O)c3c(=O)n(C4CCNC5(CC5)C4)ncc3c2)cc2cn(C)nc12` (stereo not shown) [Compound 561], the IC50 in assay [1], in assay [2] (setting [4]), in assay [2] (setting [5]) and in assay [3] was 0.1 to 1 µM throughout. For the same compound, in assay [2] (RT-qPCR), the AC50 fell in the range of 0.1 to 1 µM.
`Cc1cn2nc(-c3cc4ncn(C5CCNCC5)c(=O)c4cc3F)cc(C)c2n1` [Compound 585, 7-{2,8-dimethylimidazo[1,2-b]pyridazin-6-yl}-6-fluoro-3-(piperidin-4-yl)quinazolin-4-one]: the IC50 in assay [1], in assay [2] (setting [4]), in assay [2] (setting [5]) and in assay [3] was 1 to 10 µM throughout. In addition, the AC50 in assay [2] (RT-qPCR) fell in the range of 1 to 10 µM.
In the case of `Cc1cn2cc(-c3cc4ncn(C5CCNCC5)c(=O)c4cc3F)cc(F)c2n1` [Compound 586, 6-fluoro-7-{8-fluoro-2-methylimidazo[1,2-a]pyridin-6-yl}-3-(piperidin-4-yl)quinazolin-4-one], the IC50 was in the range of 0.1 to 1 µM in assay [1], 1 to 10 µM in assay [2] (setting [4]), 0.1 to 1 µM in assay [2] (setting [5]) and 0.1 to 1 µM in assay [3]. Also, in assay [2] (RT-qPCR), the AC50 lay in the range of 0.1 to 1 µM.
Turning to `Cc1cn2cc(-c3cc(O)c4c(=O)n(C5CCNCC5)cnc4c3)cc(F)c2n1` [Compound 587, 7-{8-fluoro-2-methylimidazo[1,2-a]pyridin-6-yl}-5-hydroxy-3-(piperidin-4-yl)quinazolin-4-one], the IC50 is below 0.1 µM in assay [1], 0.1 to 1 µM in assay [2] (setting [4]), 0.1 to 1 µM in assay [2] (setting [5]) and 0.1 to 1 µM in assay [3]. Further, the AC50 in assay [2] (RT-qPCR) was in the range of 0.1 to 1 µM.
In the case of `Cc1cn2cc(-c3cc(F)c4c(=O)n(C5CCNCC5)cnc4c3)cc(C#N)c2n1` [Compound 588], the 50% inhibitory concentration (IC50) in assay [1] was in the range of 0.1 to 1 µM; in assay [2] (setting [4]) it was 1 to 10 µM; in assay [2] (setting [5]), 1 to 10 µM; in assay [3], 1 to 10 µM. In addition, the AC50 in assay [2] (RT-qPCR) lay within 1 to 10 µM.
For `Cc1cn2nc(-c3cc(F)c4c(=O)n(C5CCNC5)cnc4c3)cc(C)c2n1` (stereo not shown) [Compound 589, 7-{2,8-dimethylimidazo[1,2-b]pyridazin-6-yl}-5-fluoro-3-(pyrrolidin-3-yl)quinazolin-4-one], the IC50 is 1 to 10 µM in assay [1], above 10 µM in assay [2] (setting [4]), above 10 µM in assay [2] (setting [5]) and 1 to 10 µM in assay [3]. In assay [2] (RT-qPCR), the AC50 is above 10 µM.
Turning to `Cc1cn2nc(-c3cc(F)c4c(=O)n([C@@H]5CCN(C)C6(CC6)C5)ncc4c3)cc(C)c2n1` [Compound 637], the IC50 in assay [1], in assay [2] (setting [4]), in assay [2] (setting [5]) and in assay [3] was below 0.1 µM in each case. The AC50 in assay [2] (RT-qPCR) is below 0.1 µM.
With `Cc1cn2nc(-c3cc(F)c4c(=O)n([C@H]5CCN(C)C6(CC6)C5)ncc4c3)cc(C)c2n1` [Compound 638], the IC50 in assay [1] was 0.1 to 1 µM; in assay [2] (setting [4]) it was below 0.1 µM; in assay [2] (setting [5]), below 0.1 µM; in assay [3], below 0.1 µM. Moreover, the AC50 in assay [2] (RT-qPCR) was below 0.1 µM.
In the case of `Cc1cn2nc(-c3cc4ccn([C@@H]5CCNC5)c(=O)c4cc3O)cc(C)c2n1` [Compound 640, 6-(2,8-dimethylimidazo[1,2-b]pyridazin-6-yl)-7-hydroxy-2-[(3R)-pyrrolidin-3-yl]isoquinolin-1-one], the IC50 in assay [1] was below 0.1 µM; in assay [2] (setting [4]) it was 1 to 10 µM; in assay [2] (setting [5]), 0.1 to 1 µM; in assay [3] it was 1 to 10 µM. Besides, the AC50 in assay [2] (RT-qPCR) fell in the range of 0.1 to 1 µM.
Regarding `Cc1cn2nc(-c3cc4ccn([C@H]5CCNC5)c(=O)c4cc3O)cc(C)c2n1` [Compound 641, 6-(2,8-dimethylimidazo[1,2-b]pyridazin-6-yl)-7-hydroxy-2-[(3S)-pyrrolidin-3-yl]isoquinolin-1-one], the IC50 was below 0.1 µM in assay [1], 1 to 10 µM in assay [2] (setting [4]), 0.1 to 1 µM in assay [2] (setting [5]) and 0.1 to 1 µM in assay [3]. In addition, in assay [2] (RT-qPCR), the AC50 lay within 0.1 to 1 µM.
Consider `Cc1cn2cc(-c3cc(F)c4c(=O)n([C@@H]5C[C@@H](C)N[C@@H](C)C5)ccc4c3)cc(F)c2n1` [Compound 642, 2-[(2S,6R)-2,6-dimethyl-4-piperidyl]-8-fluoro-6-(8-fluoro-2-methyl-imidazo[1,2-a]pyridin-6-yl)isoquinolin-1-one], for which the IC50 was 0.1 to 1 µM in assay [1], 1 to 10 µM in assay [2] (setting [4]), 0.1 to 1 µM in assay [2] (setting [5]) and 0.1 to 1 µM in assay [3]. The AC50 in assay [2] (RT-qPCR) was in the range of 0.1 to 1 µM.
Consider `Cc1cn2cc(-c3cc(F)c4c(=O)n([C@H]5CNC[C@@H]5F)ccc4c3)cc(F)c2n1` [Compound 644], for which the IC50 in assay [1] was 1 to 10 µM; in assay [2] (setting [4]), above 10 µM; in assay [2] (setting [5]), above 10 µM; in assay [3], above 10 µM. For the same compound, the AC50 in assay [2] (RT-qPCR) was above 10 µM.
In the case of `Cc1cn2nc(-c3cc(N)c4c(=O)n([C@H]5CCNC5)ccc4c3)cc(C)c2n1` [Compound 645, 8-amino-6-(2,8-dimethylimidazo[1,2-b]pyridazin-6-yl)-2-[(3S)-pyrrolidin-3-yl]isoquinolin-1-one], the IC50 in assay [1] is 1 to 10 µM; in assay [2] (setting [4]), above 10 µM; in assay [2] (setting [5]), 1 to 10 µM; in assay [3], 1 to 10 µM. Also, the AC50 in assay [2] (RT-qPCR) was 1 to 10 µM.
On to `Cc1cn2nc(-c3cc(N)c4c(=O)n([C@@H]5CCNC5)ccc4c3)cc(C)c2n1` [Compound 646, 8-amino-6-(2,8-dimethylimidazo[1,2-b]pyridazin-6-yl)-2-[(3R)-pyrrolidin-3-yl]isoquinolin-1-one], for which the IC50 in assay [1] is 1 to 10 µM; in assay [2] (setting [4]) it was above 10 µM; in assay [2] (setting [5]), above 10 µM; in assay [3], above 10 µM. The AC50 in assay [2] (RT-qPCR) is above 10 µM.
For the compound `CNc1cc(-c2cc(C)c3nc(C)cn3n2)cc2ccn([C@H]3CCNC3)c(=O)c12` [Compound 647, 6-(2,8-dimethylimidazo[1,2-b]pyridazin-6-yl)-8-(methylamino)-2-[(3S)-pyrrolidin-3-yl]isoquinolin-1-one], the IC50 is 1 to 10 µM in assay [1], above 10 µM in assay [2] (setting [4]), 1 to 10 µM in assay [2] (setting [5]) and 1 to 10 µM in assay [3]. Besides, the AC50 in assay [2] (RT-qPCR) lay in the range of 1 to 10 µM.
Take `CNc1cc(-c2cc(C)c3nc(C)cn3n2)cc2ccn([C@@H]3CCNC3)c(=O)c12` [Compound 648, 6-(2,8-dimethylimidazo[1,2-b]pyridazin-6-yl)-8-(methylamino)-2-[(3R)-pyrrolidin-3-yl]isoquinolin-1-one]: the IC50 in assay [1] was 1 to 10 µM; in assay [2] (setting [4]), above 10 µM; in assay [2] (setting [5]) it was above 10 µM; in assay [3], above 10 µM. In addition, the AC50 in assay [2] (RT-qPCR) was above 10 µM.

(Values after patent US20250332173A1, “COMPOUNDS AND METHODS FOR MODULATING NUCLEIC ACID SPLICING” (REMIX THERAPEUTICS INC., priority 2021, published 2025).)
